Results taken from patent publication US20260251625A1, “METHOD FOR DETERMINING THE DEGREE OF OXIDATIVE DEGRADATION OF POLYSORBATE 20 IN AQUEOUS FORMULATIONS” (Boehringer Ingelheim International GmbH, priority 2021, published 2026).

Assay: AAPH-induced oxidative stress of aqueous polysorbate 20 solution, PEG-6-laurate oxidation marker by LC-MS P6L
Type: physicochemical
Details: 1.5 mM AAPH
Procedure: Specifically, oxidative stress is applied to the aqueous polysorbate 20 solution using 1.5 mM 2,2′-azobis-2-methyl-propanimidamide, dihydrochloride (AAPH). The details of the sample preparation are explained in the experimental section under chapter “1.1 Materials”, point “c) Sample preparation of artificially stressed polysorbate 20”.
1.5 mM 2,2′-azobis-2-methyl-propanimidamide, dihydrochloride (AAPH) was added to a 0.040 mg/ml aqueous polysorbate 20 solution. The polysorbate 20 solution was stressed for 40 h at 50° C.
1.5 mM 2,2′-azobis-2-methyl-propanimidamide, dihydrochloride (AAPH) was added to a 0.040 mg/ml aqueous polysorbate 20 solution. The polysorbate 20 solution was stressed for 35 h at 50° C. After 0, 1, 3, 8, 12, 24 and 35 h samples were taken from the solution and immediately frozen at −20° C. in order to stop the degradation at each time point. […]
The separated species were then ionized with heated electrospray ionization (HESI) source (Ion Max Ion source with HESI probe, Thermo Fisher Scientific). […] Ions generated were detected in the mass spectrometer (LTQ, Thermo Fisher Scientific). […] PEG-6-laurate was evaluated by generating extracted ion chromatograms (EIC's) out of the full scan data to get peak areas of selected compounds using LCquan™ (Software for quantitative analysis of liquid chromatography).

increase of peak eluting at about 18.4 min, AAPH-stressed vs unstressed sample (m/z about 227 amu, 40 h at 50° C.): approximately 3.4 fold
Substance: polyethylene glycol-6-laurate
relative peak area of polyethylene glycol-6-laurate over stress time (reference T0, 50° C., 0-35 h): increase up to the sampling time point T4 (12 h)
